Values joined by “and” are separate entries in the source; they are usually repeats but may differ in a detail not shown here. Equal values may be shown once.
System: 762968-020-R-J2-PDC spheroids viability
Assay: Anticancer human tumor 762968-020-R-J2-PDC patient-derived colon carcinoma cell line growth inhibition [TAK]
Conditions: spheroids with HUVEC and MSC; for viability, T/C: stronger effect = lower value
In short: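 Drug combinations, each paired with TAK-243 or ipatasertib, were tested on multi-cell spheroids of 60% malignant cells, 25% HUVEC and 15% hMSC. Top concentrations were at or near the clinical Cmax (10 microM if undetermined), decreasing by half-log; viability is given as % test/control.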

[1] = curve of first compound, second compound 0.3 µM
[2] = curve of first compound, second compound 0.949 µM
[3] = curve of first compound, second compound 3 µM
[4] = curve of first compound, second compound 9.49 µM
[5] = curve of first compound, second compound 30 µM
[6] = second compound 0.3 µM, first compound 0.000316 µM
[7] = second compound 0.3 µM, first compound 0.001 µM
[8] = second compound 0.3 µM, first compound 0.00316 µM
[9] = second compound 0.3 µM, first compound 0.01 µM
[10] = second compound 0.3 µM, first compound 0.0316 µM
[11] = second compound 0.3 µM, first compound 0.1 µM
[12] = second compound 0.949 µM, first compound 0.000316 µM
[13] = second compound 0.949 µM, first compound 0.001 µM
[14] = second compound 0.949 µM, first compound 0.00316 µM
[15] = second compound 0.949 µM, first compound 0.01 µM
[16] = second compound 0.949 µM, first compound 0.0316 µM
[17] = second compound 0.949 µM, first compound 0.1 µM
[18] = second compound 3 µM, first compound 0.000316 µM
[19] = second compound 3 µM, first compound 0.001 µM
[20] = second compound 3 µM, first compound 0.00316 µM
[21] = second compound 3 µM, first compound 0.01 µM
[22] = second compound 3 µM, first compound 0.0316 µM
[23] = second compound 3 µM, first compound 0.1 µM
[24] = second compound 9.49 µM, first compound 0.000316 µM
[25] = second compound 9.49 µM, first compound 0.001 µM
[26] = second compound 9.49 µM, first compound 0.00316 µM
[27] = second compound 9.49 µM, first compound 0.01 µM
[28] = second compound 9.49 µM, first compound 0.0316 µM
[29] = second compound 9.49 µM, first compound 0.1 µM
[30] = second compound 30 µM, first compound 0.000316 µM
[31] = second compound 30 µM, first compound 0.001 µM
[32] = second compound 30 µM, first compound 0.00316 µM
[33] = second compound 30 µM, first compound 0.01 µM
[34] = second compound 30 µM, first compound 0.0316 µM
[35] = second compound 30 µM, first compound 0.1 µM
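Further: spheroids exposed to drug for 7 days before readout.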
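Wherever viability, T/C is given: 100% = DMSO vehicle control wells.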

In the case of CCCS(=O)(=O)Nc1ccc(F)c(C(=O)c2c[nH]c3ncc(-c4ccc(Cl)cc4)cc23)c1F + CC(C)NCC(C(=O)N1CCN(c2ncnc3c2C(C)CC3O)CC1)c1ccc(Cl)cc1, the IC50 [1] is reported as greater than 100000 nM, the IC50 [2] is reported as 23600 nM and the IC50 [3] is reported as greater than 100000 nM. For the same compound, the IC50 [4] was greater than 100000 nM, the IC50 [5] was 17900 nM and the viability, T/C (second compound 0.3 µM, first compound 0.316 µM) was 94.5%. For the same compound, the viability, T/C (second compound 0.3 µM, first compound 1 µM) was 95.2%, the viability, T/C (second compound 0.3 µM, first compound 3.16 µM) was 94.4% and the viability, T/C (second compound 0.3 µM, first compound 10 µM) was 72.3%. For the same compound, the viability, T/C (second compound 0.3 µM, first compound 31.6 µM) was 13.6%, the viability, T/C (second compound 0.3 µM, first compound 100 µM) was 97.5% and the viability, T/C (second compound 0.949 µM, first compound 0.316 µM) was 89.9%. It also gave a viability, T/C (second compound 0.949 µM, first compound 1 µM) of 93.2%, a viability, T/C (second compound 0.949 µM, first compound 3.16 µM) of 94.6% and a viability, T/C (second compound 0.949 µM, first compound 10 µM) of 57.5%. The viability, T/C (second compound 0.949 µM, first compound 31.6 µM) was 1.16%, the viability, T/C (second compound 0.949 µM, first compound 100 µM) was 93.7% and the viability, T/C (second compound 3 µM, first compound 0.316 µM) was 97.6%. It also gave a viability, T/C (second compound 3 µM, first compound 1 µM) of 93.3%, a viability, T/C (second compound 3 µM, first compound 3.16 µM) of 101% and a viability, T/C (second compound 3 µM, first compound 10 µM) of 71.3%. For the same compound, the viability, T/C (second compound 3 µM, first compound 31.6 µM) was 0.49%, the viability, T/C (second compound 3 µM, first compound 100 µM) was 97.8% and the viability, T/C (second compound 9.49 µM, first compound 0.316 µM) was 91.9%. The viability, T/C (second compound 9.49 µM, first compound 1 µM) was 94.1%, the viability, T/C (second compound 9.49 µM, first compound 3.16 µM) was 89.1% and the viability, T/C (second compound 9.49 µM, first compound 10 µM) was 70.2%. It also gave a viability, T/C (second compound 9.49 µM, first compound 31.6 µM) of 18.5%, a viability, T/C (second compound 9.49 µM, first compound 100 µM) of 105% and a viability, T/C (second compound 30 µM, first compound 0.316 µM) of 77.2%. It also gave a viability, T/C (second compound 30 µM, first compound 1 µM) of 90.9%, a viability, T/C (second compound 30 µM, first compound 3.16 µM) of 87.4% and a viability, T/C (second compound 30 µM, first compound 10 µM) of 53.6%. It also gave a viability, T/C (second compound 30 µM, first compound 31.6 µM) of 2.13% and a viability, T/C (second compound 30 µM, first compound 100 µM) of 90.7%.
CC(C)(C)c1nc(-c2cccc(NS(=O)(=O)c3c(F)cccc3F)c2F)c(-c2ccnc(N)n2)s1 was tested, and the viability, T/C (compound 0.0316 µM) was 85.6% and 94.4%, the viability, T/C (compound 0.1 µM) was 82.9% and 88.2% and the viability, T/C (compound 0.316 µM) was 92.5% and 85.2%. The viability, T/C (compound 1 µM) was 86.4% and 81%, the viability, T/C (compound 3.16 µM) was 90.5% and 88.5% and the viability, T/C (compound 10 µM) was 99.3% and 86.4%. The IC50 (curve of compound) was greater than 10000 nM.
With COC1CC2CCC(C)C(O)(O2)C(=O)C(=O)N2CCCCC2C(=O)OC(C(C)CC2CCC(OCCO)C(OC)C2)CC(=O)C(C)C=C(C)C(O)C(OC)C(=O)C(C)CC(C)C=CC=CC=C1C (configuration not stated) + CC(C)NCC(C(=O)N1CCN(c2ncnc3c2C(C)CC3O)CC1)c1ccc(Cl)cc1 the IC50 [1] was greater than 100 nM, the IC50 [2] was greater than 100 nM and the IC50 [3] was greater than 100 nM. The IC50 [4] was greater than 100 nM, the IC50 [5] was greater than 100 nM and the viability, T/C [6] was 102%. The viability, T/C [7] was 106%, the viability, T/C [8] was 103% and the viability, T/C [9] was 103%. The viability, T/C [10] was 103%, the viability, T/C [11] was 102% and the viability, T/C [12] was 104%. The viability, T/C [13] was 104%, the viability, T/C [14] was 111% and the viability, T/C [15] was 105%. For the same compound, the viability, T/C [16] was 99.5%, the viability, T/C [17] was 92.3% and the viability, T/C [18] was 107%. The viability, T/C [19] was 109%, the viability, T/C [20] was 109% and the viability, T/C [21] was 105%. It also gave a viability, T/C [22] of 95.1%, a viability, T/C [23] of 97.5% and a viability, T/C [24] of 104%. It also gave a viability, T/C [25] of 105%, a viability, T/C [26] of 95.5% and a viability, T/C [27] of 101%. It also gave a viability, T/C [28] of 93.9%, a viability, T/C [29] of 100% and a viability, T/C [30] of 92.2%. It also gave a viability, T/C [31] of 89%, a viability, T/C [32] of 92.3% and a viability, T/C [33] of 86.4%. It also gave a viability, T/C [34] of 92.2% and a viability, T/C [35] of 84.5%.
For CC(C)CC(NC(=O)CNC(=O)c1cc(Cl)ccc1Cl)B1OC(=O)CC(CC(=O)O)(C(=O)O)O1 (configuration not stated) + CC(C)NCC(C(=O)N1CCN(c2ncnc3c2C(C)CC3O)CC1)c1ccc(Cl)cc1, the IC50 [1] was greater than 100 nM, the IC50 [2] was greater than 100 nM and the IC50 [3] was greater than 100 nM. It also gave an IC50 [4] greater than 100 nM, an IC50 [5] greater than 100 nM and a viability, T/C [6] of 100%. It also gave a viability, T/C [7] of 105%, a viability, T/C [8] of 93.4% and a viability, T/C [9] of 108%. The viability, T/C [10] was 99.4%, the viability, T/C [11] was 79.5% and the viability, T/C [12] was 94%. It also gave a viability, T/C [13] of 93.8%, a viability, T/C [14] of 97.1% and a viability, T/C [15] of 103%. It also gave a viability, T/C [16] of 103%, a viability, T/C [17] of 70.6% and a viability, T/C [18] of 104%. The viability, T/C [19] was 102%, the viability, T/C [20] was 98.2% and the viability, T/C [21] was 105%. For the same compound, the viability, T/C [22] was 95.2%, the viability, T/C [23] was 73.4% and the viability, T/C [24] was 94%. The viability, T/C [25] was 94.8%, the viability, T/C [26] was 102% and the viability, T/C [27] was 101%. The viability, T/C [28] was 95.5%, the viability, T/C [29] was 79.9% and the viability, T/C [30] was 79%. The viability, T/C [31] was 89.4%, the viability, T/C [32] was 89.4% and the viability, T/C [33] was 88%. The viability, T/C [34] was 84.5% and the viability, T/C [35] was 72.7%.
